pIC50: −log10 of the molar value. In brackets after ≈: the same amount, converted by molar mass.
What was measured:
acid ceramidase (hACR) = biological target: T1, acid ceramidase (hACR) (Homo sapiens, UniProt Q13510); experiment: Acid ceramidase inhibition, biochemical fluorescent assay with cell lysates overexpressing acid ceramidase (substrate Rbm14-12); settings: cell lysate, 1 hr preincubation at RT, pH 4.5, Rbm14-12 6.3 μM; read-out: IC50 hACR
T1 construct: expressed in transfected cells
T1 sequence (Q13510 22-395): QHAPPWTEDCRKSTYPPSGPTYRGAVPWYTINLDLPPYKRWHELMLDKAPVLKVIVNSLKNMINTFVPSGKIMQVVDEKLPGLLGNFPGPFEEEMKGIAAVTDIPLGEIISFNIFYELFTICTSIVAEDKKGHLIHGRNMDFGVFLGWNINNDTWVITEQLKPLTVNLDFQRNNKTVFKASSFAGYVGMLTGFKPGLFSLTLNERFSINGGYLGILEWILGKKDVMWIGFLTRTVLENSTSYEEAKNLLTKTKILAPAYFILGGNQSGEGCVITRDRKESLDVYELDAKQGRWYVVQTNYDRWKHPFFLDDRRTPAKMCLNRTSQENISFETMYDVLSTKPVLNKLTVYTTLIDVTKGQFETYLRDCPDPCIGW
Procedure: The ability of exemplary compounds to inhibit acid ceramidase was measured.
Cell lysates overexpressing acid ceramidase were used as the enzyme source for compound potency determination in a biochemical fluorescent assay. Briefly, compounds were preincubated with 10 μg protein of cell lysates in a dose-response manner for 1 hr at RT in the assay buffer containing 25 mM NaAC and 100 mM NaCl, pH 4.5. […] The samples were incubated with the stopping buffer at RT for 1 hr to allow the fluorescent product to be formed. […] Data were collected and used to determine the IC50 values of compounds by curve fitting to the four-parameter inhibition equation.

[1] = Compound solubility in water; format: physicochemical

| pIC50 (acid ceramidase (hACR)) | solubility [1] | SMILES |
| --- | --- | --- |
| > 6.70 | 2.6 µg/mL (≈ 8.43 µM) | O=C(NCCOc1ccccc1)n1cnc(-c2cccnc2)c1 [Example 17, N-(2-Phenoxyethyl)-4-(pyridin-3-yl)-1H-imidazole-1-carboxamide] |
| > 6.70 | 30 µg/mL (≈ 69.2 µM) | Cc1cn(C(=O)NCc2ccc(-c3ccccc3)cc2)c(OCCN2CCN(C)CC2)n1 [Example 203, N-(Biphenyl-4-ylmethyl)-4-methyl-2-(2-(4-methylpiperazin-1-yl)ethoxy)-1H-imidazole-1-carboxamide] |
| < 6.00 | 23 µg/mL (≈ 82.6 µM) | COc1nc(C(C)(C)C#N)cn1C(=O)NCCC(C)C [Example 81, 4-(2-Cyanopropan-2-yl)-N-iso-pentyl-2-methoxy-1H-imidazole-1-carboxamide] |
| 6.00 to 6.70 | 30 µg/mL (≈ 107 µM) | COc1nc(C)cn1C(=O)NCCCOC(F)(F)F [Example 151, 2-Methoxy-4-methyl-N-(3-(trifluoromethoxy)-propyl)-1H-imidazole-1-carboxamide] |
| 6.00 to 6.70 | 38 µg/mL (≈ 101 µM) | Cc1cn(C(=O)NCCCC(F)(F)F)c(OCCN2CCN(C)CC2)n1 [Example 198, 4-Methyl-2-(2-(4-methylpiperazin-1-yl)ethoxy)-N-(4,4,4-trifluorobutyl)-1H-imidazole-1-carboxamide] |
| > 6.70 | 3 µg/mL (≈ 9.79 µM) | Cc1ccc(-c2cn(C(=O)NCCc3ccccc3)cn2)cn1 [Example 29, 4-(6-Methylpyridin-3-yl)-N-phenethyl-1H-imidazole-1-carboxamide] |
| 6.00 to 6.70 | 16.2 µg/mL (≈ 55.4 µM) | O=C(NCCc1ccccc1)n1cnc(-c2cccnc2)c1 [Example 5] |
| 6.00 to 6.70 | 23 µg/mL (≈ 102 µM) | CCOc1nccn1C(=O)NCCC(C)C [Example 121, 2-Ethoxy-N-iso-pentyl-1H-imidazole-1-carboxamide] |
| 6.00 to 6.70 | 41.5 µg/mL (≈ 94.8 µM) | CN1CCN(C2CCN(c3ncccc3-c3cn(C(=O)NCCC4CC4)cn3)CC2)CC1 [Example 55, N-(2-Cyclopropylethyl)-4-(2-(4-(4-methylpiperazin-1-yl)piperidin-1-yl)pyridin-3-yl)-1H-imidazole-1-carboxamide] |
| > 6.70 | 34 µg/mL (≈ 119 µM) | COc1nc(Cl)cn1C(=O)NCCCC(F)(F)F [Example 168, 4-Chloro-2-methoxy-N-(4,4,4-trifluorobutyl)-1H-imidazole-1-carboxamide] |
| 6.00 to 6.70 | 25.1 µg/mL (≈ 94.9 µM) | CC(C)CCNC(=O)n1cnc(-c2cncs2)c1 [Example 51, N-iso-Pentyl-4-(thiazol-5-yl)-1H-imidazole-1-carboxamide] |
| 6.00 to 6.70 | 0.2 µg/mL (≈ 0.734 µM) | CC(C)(C)c1cn(C(=O)NCCc2cccnc2)cn1 [Example 20, 4-tert-Butyl-N-(2-(pyridin-3-yl)ethyl)-1H-imidazole-1-carboxamide] |
| 6.00 to 6.70 | 12 µg/mL (≈ 43 µM) | CCOc1nc(C(C)(C)C)cn1C(=O)NCCC1CC1 [Example 92, 4-(tert-Butyl)-N-(2-cyclopropylethyl)-2-ethoxy-1H-imidazole-1-carboxamide] |
| 6.00 to 6.70 | 13 µg/mL (≈ 52.1 µM) | COc1nc(C2CCCC2)cn1C(=O)NC1CC1 [Example 126, 4-Cyclopentyl-N-cyclopropyl-2-methoxy-1H-imidazole-1-carboxamide] |
| > 6.70 | 25.6 µg/mL (≈ 73.5 µM) | CN(C)Cc1ccc(-c2cn(C(=O)NCCc3ccccc3)cn2)cc1 [Example 34, 4-(4-((Dimethylamino)methyl)phenyl)-N-phenethyl-1H-imidazole-1-carboxamide] |
| > 6.70 | 22 µg/mL (≈ 62.1 µM) | COc1ccc(-c2cn(C(=O)NCCC3(C(F)(F)F)CC3)cn2)cn1 [Example 71, 4-(6-Methoxypyridin-3-yl)-N-(2-(1-(trifluoromethyl)cyclopropyl)ethyl)-1H-imidazole-1-carboxamide] |
| < 6.00 | 2 µg/mL (≈ 6.05 µM) | CCOc1nc(-c2ccc(OC)nc2)cn1C(=O)NCCC1CC1 [Example 68, N-(2-Cyclopropylethyl)-2-ethoxy-4-(6-methoxypyridin-3-yl)-1H-imidazole-1-carboxamide] |
| 6.00 to 6.70 | 25.6 µg/mL (≈ 99.1 µM) | CCC(C)CNC(=O)n1cnc(-c2cccnc2)c1 (centres unmarked) [Example 60, N-(2-Methylbutyl)-4-(pyridin-3-yl)-1H-imidazole-1-carboxamide] |
| 6.00 to 6.70 | 35.3 µg/mL (≈ 99.6 µM) | CC(C)CCNC(=O)n1cnc(-c2ccccc2C2CCN(C)CC2)c1 [Example 38, N-iso-Pentyl-4-(2-(1-methylpiperidin-4-yl)phenyl)-1H-imidazole-1-carboxamide] |

| pIC50 (acid ceramidase (hACR)) | solubility [1] | SMILES |
| --- | --- | --- |
| < 6.00 | 34 µg/mL (≈ 129 µM) | O=C(NCCC1CC1)n1cnc(-n2ccc(F)n2)c1 [Example 74, N-(2-Cyclopropylethyl)-4-(3-fluoro-1H-pyrazol-1-yl)-1H-imidazole-1-carboxamide] |
| > 6.70 | 21 µg/mL (≈ 49.9 µM) | Cc1cn(C(=O)NC2CCC(F)(F)CC2)c(Oc2ccc(N3CCOCC3)cc2)n1 [Example 165, N-(4,4-Difluorocyclohexyl)-4-methyl-2-(4-morpholinophenoxy)-1H-imidazole-1-carboxamide] |
| 6.00 to 6.70 | 31 µg/mL (≈ 104 µM) | Cc1cn(C(=O)NC2CC2)c(OC2CCC(F)(F)CC2)n1 [Example 183, N-Cyclopropyl-2-(4,4-difluorocyclohexyloxy)-4-methyl-1H-imidazole-1-carboxamide] |
| > 6.70 | 25 µg/mL (≈ 69.8 µM) | CN1CCC(c2cn(C(=O)NCCCC3(C(F)(F)F)CC3)cn2)CC1 [Example 174, 4-(1-Methylpiperidin-4-yl)-N-(3-(1-(trifluoromethyl)cyclopropyl)propyl)-1H-imidazole-1-carboxamide] |
| < 6.00 | 8 µg/mL (≈ 26.5 µM) | CCOc1nc(-c2cccnc2)cn1C(=O)NCCC(C)C [Example 67, 2-Ethoxy-N-iso-pentyl-4-(pyridin-3-yl)-1H-imidazole-1-carboxamide] |
| 6.00 to 6.70 | 34.2 µg/mL (≈ 123 µM) | CC(C)CCNC(=O)n1cnc(C2CCN(C)CC2)c1 [Example 48, N-iso-Pentyl-4-(1-methylpiperidin-4-yl)-1H-imidazole-1-carboxamide] |
| 6.00 to 6.70 | 12.1 µg/mL (≈ 44.4 µM) | CC(C)(C)CCNC(=O)n1cnc(-c2cccnc2)c1 [Example 45, N-(3,3-Dimethylbutyl)-4-(pyridin-3-yl)-1H-imidazole-1-carboxamide] |
| 6.00 to 6.70 | 8 µg/mL (≈ 28.6 µM) | COc1nc(C(C)(C)C)cn1C(=O)NC1CCCCC1 [Example 93, 4-(tert-Butyl)-N-cyclohexyl-2-methoxy-1H-imidazole-1-carboxamide] |
| 6.00 to 6.70 | 30.8 µg/mL (≈ 88.1 µM) | CN(C)Cc1cncc(-c2cn(C(=O)NCCc3ccccc3)cn2)c1 [Example 44, 4-(5-((Dimethylamino)methyl)pyridin-3-yl)-N-phenethyl-1H-imidazole-1-carboxamide] |
| < 6.00 | 14 µg/mL (≈ 62.7 µM) | COc1nccn1C(=O)NC1CCCCC1 [Example 120, N-Cyclohexyl-2-methoxy-1H-imidazole-1-carboxamide] |
| 6.00 to 6.70 | 28 µg/mL (≈ 99.5 µM) | COc1nc(C2CCOC2)cn1C(=O)NCCC(C)C (centres unmarked) [Example 85, N-iso-Pentyl-2-methoxy-4-(tetrahydrofuran-3-yl)-1H-imidazole-1-carboxamide] |
| > 6.70 | 49 µg/mL (≈ 117 µM) | Cc1cn(C(=O)NCCCC2(C(F)(F)F)CC2)c(OCCN2CCN(C)CC2)n1 [Example 200, 4-Methyl-2-(2-(4-methylpiperazin-1-yl)ethoxy)-N-(3-(1-(trifluoromethyl)cyclopropyl)propyl)-1H-imidazole-1-carboxamide] |
| < 6.00 | 29 µg/mL (≈ 106 µM) | COc1nc(C)cn1C(=O)NC1CCCC(F)(F)C1 (centres unmarked) [Example 153, N-(3,3-difluorocyclohexyl)-2-methoxy-4-methyl-1H-imidazole-1-carboxamide] |
| > 6.70 | 12 µg/mL (≈ 34.5 µM) | COc1nc(C(C)(C)C)cn1C(=O)NCCCC1(C(F)(F)F)CC1 [Example 96, 4-(tert-Butyl)-2-methoxy-N-(3-(1-(trifluoromethyl)cyclopropyl)propyl)-1H-imidazole-1-carboxamide] |
| > 6.70 | 3 µg/mL (≈ 10.2 µM) | COc1nc(C(C)(C)C)cn1C(=O)NCCCCC1CC1 [Example 97, 4-(tert-Butyl)-N-(4-cyclopropylbutyl)-2-methoxy-1H-imidazole-1-carboxamide] |
| < 6.00 | 7.3 µg/mL (≈ 26.8 µM) | Cc1ccc(-c2cn(C(=O)NCCC(C)C)cn2)cn1 [Example 37, N-iso-Pentyl-4-(6-methylpyridin-3-yl)-1H-imidazole-1-carboxamide] |
| > 6.70 | 5 µg/mL (≈ 18 µM) | COc1nc(C(C)(C)C)cn1C(=O)NCC#CC(C)C [Example 98, 4-(tert-Butyl)-2-methoxy-N-(4-methylpent-2-yn-1-yl)-1H-imidazole-1-carboxamide] |
| 6.00 to 6.70 |  | COc1nc(Cl)cn1C(=O)NCC#CC(C)C [Example 186, 4-Chloro-2-methoxy-N-(4-methylpent-2-yn-1-yl)-1H-imidazole-1-carboxamide] |
|  | 29 µg/mL (≈ 66.4 µM) | CN1CCN(c2ncccc2-c2cn(C(=O)NCCCC3(C(F)(F)F)CC3)cn2)CC1 [Example 176, 4-(2-(4-Methylpiperazin-1-yl)pyridin-3-yl)-N-(3-(1-(trifluoromethyl)cyclopropyl)propyl)-1H-imidazole-1-carboxamide] |
